Measurements taken from patent US6900242B2, “Lactone formulations and method of use” (Magnachem International Laboratories, Inc., priority 2001, dated 2005).
In brackets after ≈: the same amount, converted by molar mass.

Experiments:
[1] = system: Staphyloccus aureus ATCC 12598; assay: Anti-bacterial activity, sensitivity disc zone of inhibition; type: cell-based, Staphylococcus aureus; conditions: for zone of inhibition: St. a
Description: (§1) The material obtained in Example 1 was screened for antibiotic activity against Staphylococcus aureus, Pseudomonas aeroginosa, Escherichia coli, and Klebsiella pneumoniae. • Solvent: Buffer Phosphate 0.1 N, pH=8.0 • Antibiotic: LMSV-6 (Pure, Securolide) • Medium coat: 2 mL/100 mL • Inoculum: 4 mL/Petri Dish Preparation of Culture Medium: [table] Microorganisms used were standardized by American Type Culture Collection (ATCC), used in first generation: • E. coli ATCC 352 18, Lot 202602, Exp. 05/2000 (19-258) • *Kleb. Klebsiela pneumoniae, ATCC 13882, Lot 202 174, Exp 02/2000 (19-152) • *Ps. A Pseudomona aeroginosa ATCC 27853, Lot 202992, Exp 08/2000 (19-060) • *St. A Staphyloccus aureus ATCC 12598, Lot 202564, Exp 05/2000 (19-137) • **Str. P Streptoccus pyogenes, ATCC 2 1547, Lote 202691, Exp 06/2000 (19-190) • *=Atmospheric oxygen, Temp=35±2° C. • **=Atmopheric CO2, Temp=35±2° C.

[2] = system: Pseudomona aeroginosa ATCC 27853; assay: as above; type: cell-based, Pseudomonas aeroginosa; conditions: for zone of inhibition: Ps. A
Description: as §1

[3] = system: Klebsiela pneumoniae, ATCC 13882; assay: as above; type: cell-based, Klebsiella pneumoniae; conditions: for zone of inhibition: Kleb
Description: as §1

E. coli ATCC 352 18 = assay: as above; type: cell-based, Escherichia coli; conditions: for zone of inhibition: E. coli
Description: as §1

[4] = system: HEP-2 cells (laringe carcinoma); assay: Cytotoxic assay (MTT) in HEP-2 cells; type: cell-based; conditions: Homo sapiens, HEp-2, HEP-2 cells
Text: (§2) There are a large number of biological assays that require the measurement of surviving or proliferating mammalian cells. This can be achieved by different methods, e.g. counting cells that exclude or include a dye; measuring released ^51Cr labeled protein after cell lysis; and measuring incorporation of radiactive nucleotides radiactive [^3H]thymidine) or [^125I]iododeoxyuridine) during cells proliferation.
(§3) Viable cells can be measured by using any of several staining methods, but a more accurate method is the multiwell scanning spectrophotometers (ELISA readers) which can measure large number of samples with a high degree of precision.
(§4) A colorimetric assay to detect living cells, utilizing a colorless substrate that is modified to a colored product by any living cell, but not by dead cells or tissue culture medium, was used. […] The Formazan concentration in a gradient of Securolide concentrations was measured by multiwells scanning spectrophotometer (ELISA reader). Data analysis was then used to establish the Inhibitory concentration fifty (IC50) which is a quantitative parameter of antineoplastic activity. […]
(§5) Assessment of cell growth inhibition was determined according to the methods of Skehan et aL, J. Nat. […] Optical density was measured at 570 nm. […]

Sarcina lutea = assay: Minimum Inhibitory Concentration, poured in plate, sensitivity disc; type: cell-based
Description: • Methodology: Poured in plate, medium Mueler Hinton pH=8 • Buffer pH=8 for ceftriaxone pattern dilution • Tween 20 at 2% for LMSV-6 (Securolide) dilution • Microorganism: Sarcina lutea • Sample(s): LMSV-6 (16.0 microliters/100 mL and 10 microliter applied to sensitivity disc). Methodology: Poured in plate, medium Mueler Hinton p&8 • Buffer pH=8 for ceftriaxone pattern dilution • Tween 20 at 2% for LMSV-6 (Securolide) dilution • Used Microorganism: Sarcina lutea • Sample(S): LMSV-6 (10 microliters/mL and 20 microliter applied to sensitivity disc) • Control Pattern (P): Ceftriaxone (disc with 10 mcg) Results: […]

[5] = system: HELA cells (cervix carcinoma); assay: Cytotoxic assay (MTT) in HELA cells; type: cell-based; conditions: Homo sapiens
Text: as §2, §3, §4, §5

Candida albicans = Candida albicans MIC / minimal fungicidal concentration assays; type: cell-based; conditions: concomitant assays
Description: Candida albicans cells were prepared as indicated in the J. Antimicrobial Chemotherapy 38, 579-587, and were washed 3 times with a 0.1 M phosphate solution and used immediately to determine the minimal inhibitory concentration (MIC). The MICs were determined by modification of a microtitre plate according to the standard method of the laboratory clinical standards of the Comite National. RPMI-1640, and L-glutamine buffered at pH 7 with a 0.15 M solution of MOPS (3-[N-morpholino]propane sulfonic acid). Candida albicans cells (1.5×10^3 cells/ml) were added to the wells of a 96-well plate containing RPMI-1640 and dilutions of antifungal agents. The results were read 48 hours after incubation at 35° C. and the MIC or the minimal inhibitory concentration which inhibited the growth of the Candida albicans cells was determined. After reading the MIC at 48 hours, the plates were shaken and 10 μl of well aliquot was removed from the wells which was placed on rectangular disks containing dextrose sugar. The plates were incubated for 48 hours at 35° C. and the minimal fungicidal concentration and the concentration of the antifungal agent at which there were no number of colony forming units.

B. gracilis = assay: MIC, procedure of Walker et al; type: cell-based
Text: (§6) The minimum inhibitory concentration (MIC) needed to kill Bacteroides assaccharolyticus (Forsyth strain), determined according to the procedure of Walker et al (Antimicrobial and Chemotherapy, Vol. 16, p. 452-457, (1979), is between 6 to 60 micrograms per ml. The MIC value for B. gingivalis is 6 micrograms per ml. The MIC value for B. gracilis and Fusobacterium, other gram negative organisms is about 25 for each; and the MIC value for the gram positive organism Actinomyces viscosus is 60 for the aerobic strain and 60 for the anaerobic strain.

[6] = system: Bacteroides assaccharolyticus (Forsyth strain); assay: MIC, procedure of Walker et al; type: cell-based; conditions: read-out: minimum inhibitory concentration (MIC)
Text: as §6

B. gingivalis = assay: MIC, procedure of Walker et al; type: cell-based; conditions: Porphyromonas gingivalis
Text: as §6

Actinomyces viscosus = assay: MIC, procedure of Walker et al; type: cell-based
Text: as §6

Fusobacterium = assay: MIC, procedure of Walker et al; type: cell-based
Text: as §6

[7] = system: anaerobic gram negative organisms associated with gingivitis; assay: Topical application to affected gingiva (gingivitis); type: in vivo; conditions: topically applied to the affected gingiva
bacterial infection = assay: In vivo treatment of bacterial infection, rats infected in surgery; conditions: doses calculated by comparison with ceftriaxone
[8] = system: Staphylococcus aureus, Pseudomonas aeroginosa, Escherichia coli, and Klebsiella pneumoniae; assay: Anti-bacterial activity of LMSV-6 dilutions (text summary, whole panel); type: cell-based; conditions: dilutions 10, 20, 30 and 40 microliters/10 mL of LMSV-6 in Tween 60-2%
Description: The material obtained in Example 1 was screened for antibiotic activity against Staphylococcus aureus, Pseudomonas aeroginosa, Escherichia coli, and Klebsiella pneumoniae.
• Solvent: Buffer Phosphate 0.1 N, pH=8.0 • Antibiotic: LMSV-6 (Pure, Securolide) • Medium coat: 2 mL/100 mL • Inoculum: 4 mL/Petri Dish Preparation of Culture Medium: […]

H. pylori = assay: Patient endoscopy before and after treatment, H. pylori; type: in vivo, human; conditions: patients
Text: There are several methods used clinically to determine whether Helicobacter pylori is present in a human subject. These are employed for initial diagnosis of infection prior to treatment, as well as for determining the success of treatment in eradicating the organism from the patient. Endoscopy of the patient provides samples of tissue which can be cultured in a microaerophilic environment to diagnose H. pylori infection. Alternatively, the sample can be examined histologically by employing one of a number of stains such as Giemsa or hematoxylin-eosin. An urea test which takes advantage of the production of urease by H. pylori, can also be applied. This test relies on the formation of ammonia from the urea hydrolysis, which results in an observable change in pH, that is an indication of the […] of H. pylori.

[9] = disc of sensitivity 50 micrograms
[10] = disc of sensitivity 5 micrograms

C[C@@H]1O[C@@H]1P(=O)(O)O [osf, Fosfomicina, reference compound]
zone of inhibition [1, 9]: 18 mm | zone of inhibition [2, 9]: 6 mm | zone of inhibition [3, 9]: 22 mm | zone of inhibition (E. coli ATCC 352 18; [9]): 10 mm

C=C1CCOC1=O [LMSV-6]
IC50 ([4]; population of 10^5 Cells/mL): 10.4 µg/mL (≈ 106 µM) | IC50 ([4]; population of 10^6 Cells/mL): 37.4 µg/mL (≈ 381 µM) | zone of inhibition ([1]; LMSV-6 (puro)): 30 mm | inhibition of growth ([1]; Staphyloccus aureus, 5 microliters): inhibits growth | inhibition (zone) (Sarcina lutea; 0.2 microliters of LMSV-6): 3.3 mm | ZONE OF INHIBITION (Sarcina lutea; applied volume to disc 1.6 microliters): 20.0 mm | ZONE OF INHIBITION (Sarcina lutea; applied volume to disc 5 microliters): 42.0 mm | Minimum Inhibitory Concentration (MIC) (Sarcina lutea; approximate): ~0.2 µL | zone of inhibition ([2]; LMSV-6 (puro)): 30 mm | inhibition of growth ([2]; Pseudomonas aeroginosa, 5 microliters): inhibits growth | IC50 ([5]; population of 10^5 Cells/mL): 7.37 µg/mL (≈ 75.1 µM) | IC50 ([5]; population of 10^6 Cells/mL): 27.3 µg/mL (≈ 278 µM) | activity against Candida albicans (Candida albicans): high activity | zone of inhibition ([3]; LMSV-6 (puro)): 40 mm | inhibition of growth ([3]; Klebsiela pneumonae, 5 microliters): inhibits growth | MIC value (B. gracilis): about 25 | MIC [6]: 6 to 60 µg/mL (≈ 61.2 to 612 µM) | MIC (B. gingivalis): 6 µg/mL (≈ 61.2 µM) | MIC value (Actinomyces viscosus; aerobic strain): 60 µg/mL (≈ 612 µM) | MIC value (Actinomyces viscosus; anaerobic strain): 60 µg/mL (≈ 612 µM) | MIC value (Fusobacterium): about 25 | effect against gingivitis organisms [7]: selectively effective | treatment of bacterial infection (bacterial infection): successfully treated | zone of inhibition (E. coli ATCC 352 18; LMSV-6 (puro)): 30 (mm) | inhibition of growth (E. coli ATCC 352 18; Escherichia coli, 5 microliters): inhibits growth | inhibition of bacterial growth [8]: did not exhibit inhibition of bacterial growth | H. pylori by endoscopy before and after treatment (H. pylori): decrease or absence of H. pylori

O=C(O)c1cn(C2CC2)c2cc(N3CCNCC3)c(F)cc2c1=O [Ciprof, Ciprofloxacina, reference compound]
zone of inhibition [1, 10]: 20 mm | zone of inhibition [2, 10]: 12 mm | zone of inhibition [3, 10]: 26 mm | zone of inhibition (E. coli ATCC 352 18; [10]): 28 mm
